Results: patent publication US20220213061A9, “HETEROCYCLIC COMPOUNDS FOR MODULATING NR2F6” (TES Pharma S.r.l., priority 2020, published 2022)
Structures can show the parent of a compound that is named as a salt.

Biological target: T1, recombinant human NR2F6 protein (Homo sapiens, UniProt P10588)
T1 sequence (P10588 1-404): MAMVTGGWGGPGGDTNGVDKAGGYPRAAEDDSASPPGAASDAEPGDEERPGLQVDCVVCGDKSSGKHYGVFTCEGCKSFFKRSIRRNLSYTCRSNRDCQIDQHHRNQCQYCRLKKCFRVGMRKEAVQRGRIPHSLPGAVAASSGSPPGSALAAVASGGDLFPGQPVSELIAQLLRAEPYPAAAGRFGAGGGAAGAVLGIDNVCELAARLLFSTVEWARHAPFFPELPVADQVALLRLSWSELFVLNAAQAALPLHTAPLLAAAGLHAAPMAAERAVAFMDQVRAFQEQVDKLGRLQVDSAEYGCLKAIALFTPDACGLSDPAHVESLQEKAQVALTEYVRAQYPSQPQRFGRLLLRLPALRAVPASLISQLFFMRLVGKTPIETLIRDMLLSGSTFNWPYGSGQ
Assay: Biochemical NR2F6 binding assay (EnSpire label-free)
Conditions: label-free binding to immobilized purified recombinant human NR2F6; ligands 1 nM to 100 uM, 1% DMSO
Description: Purified recombinant human NR2F6 protein was dissolved in immobilization buffer at pH 4.5 and then immobilized in EnSpire-LFB High-Sensitivity User-Activated Plates at the concentration of 50 μg/well plate and left in incubation for 16 h at 4° C. Wells with only immobilization buffer were used as negative control to check the protein coating efficiency. NR2F6 ligands were resuspended in DMSO at the concentration of 10 mM, then dispensed into a plate containing assay buffer at concentrations ranging from 1 nM to 100 uM using an HP-dispenser. DMSO was normalized at the 1% of volume of each well. The final readings were taken over a period of 30 minutes. The label-free responses were measured as shifts in reflected wavelength and are expressed in picometers (pm). Results were analyzed using the EnSpire label-free user interface software, and EC50 and graphs were generated using GraphPad PRISM software. In the tables below, A is <1 μM; B is 1 to 10 μM; C is 10 to 50 μM; and D is >50 μM.

Structure (SMILES) | EC50
O=C(Nc1cccc(-c2cccnc2)c1)[C@@H]1CN(C2CCOCC2)C[C@H]1c1ccccc1 (racemic) [Compound I-54, (±)-trans-4-Phenyl-N-[3-(pyridin-3-yl)phenyl]-1-(tetrahydro-2H-pyran-4-yl)pyrrolidine-3-carboxamide] | > 50 µM
CC(=O)N1C[C@@H](C(=O)Nc2cccc(-c3cccnc3)c2)[C@H](c2ccccc2)C1 (racemic) [Compound I-55, (±)-trans-1-Acetyl-4-phenyl-N-[3-(pyridin-3-yl)phenyl]pyrrolidine-3-carboxamide] | > 50 µM
c1ccc([C@@H]2CNC[C@@H]2Oc2cccc3cnccc23)cc1 (racemic) [Compound I-61, 5-{[(±)-cis-4-Phenylpyrrolidin-3-yl]oxy}isoquinoline dihydrochloride] | 1 to 10 µM
O=C(Nc1cccc(-c2cccnc2)c1)[C@@H]1CN(c2ccccc2)C[C@H]1c1ccccc1 (racemic) [Compound I-62, (±)-trans-1,4-Diphenyl-N-[3-(pyridin-3-yl)phenyl]pyrrolidine-3-carboxamide] | < 1 µM
O=C(Nc1cccc(-c2cccnc2)c1)[C@@H]1CN(Cc2ccccc2)C[C@H]1c1ccccc1 (racemic) [Compound I-63, (±)-trans-1-Benzyl-4-phenyl-N-[3-(pyridin-3-yl)phenyl]pyrrolidine-3-carboxamide] | 1 to 10 µM
c1ccc([C@H]2CNC[C@@H]2Oc2cccc3cnccc23)cc1 (racemic) [Compound I-64, 5-{[(±)-trans-4-Phenylpyrrolidin-3-yl]oxy}isoquinoline dihydrochloride] | 1 to 10 µM
O=C(Nc1cccc2c1OCCO2)[C@H]1CNC[C@@H]1c1ccccc1 (racemic) [Compound I-65, (±)-trans-N-(2,3-Dihydro-1,4-benzodioxin-5-yl)-4-phenylpyrrolidine-3-carboxamide hydrochloride] | > 50 µM
O=C(Nc1ccccc1Oc1cccnc1)[C@H]1CNC[C@@H]1c1ccccc1 (racemic) [Compound I-68, (±)-trans-4-Phenyl-N-[2-(pyridin-3-yloxy)phenyl]pyrrolidine-3-carboxamide dihydrochloride] | 1 to 10 µM
O=C(Nc1cccc(Oc2ccccc2)c1)[C@H]1CNC[C@@H]1c1ccccc1 (racemic) [Compound I-69, (±)-trans-N-(3-Phenoxyphenyl)-4-phenylpyrrolidine-3-carboxamide hydrochloride] | < 1 µM
O=C(Nc1ccc(Oc2cccnc2)cc1)[C@H]1CNC[C@@H]1c1ccccc1 (racemic) [Compound I-70, (±)-trans-4-Phenyl-N-[4-(pyridin-3-yloxy)phenyl]pyrrolidine-3-carboxamide dihydrochloride] | > 50 µM
O=C(Nc1cccc(-c2cccnc2)c1)[C@H]1CNC[C@@H]1C1CCCCC1 (racemic) [Compound I-71, (±)-trans 4-Cyclohexyl-N-[3-(pyridin-3-yl)phenyl]pyrrolidine-3-carboxamide dihydrochloride] | 1 to 10 µM
O=C(Nc1cccc(-c2cccnc2)c1)[C@H]1CNC[C@@H]1Cc1ccccc1 (racemic) [Compound I-72, (±)-trans 4-Benzyl-N-[3-(pyridin-3-yl)phenyl]pyrrolidine-3-carboxamide dihydrochloride] | > 50 µM
c1ccc([C@H]2CNC[C@@H]2OCc2cccc3cnccc23)cc1 (racemic) [Compound I-73, 5-({[(±)-trans-4-Phenylpyrrolidin-3-yl]oxy}methyl)isoquinoline dihydrochloride] | > 50 µM
O=C(Nc1cccc2ocnc12)[C@H]1CNC[C@@H]1c1ccccc1 (racemic) [Compound I-76, (±)-trans-N-(1,3-Benzoxazol-4-yl)-4-phenylpyrrolidine-3-carboxamide dihydrochloride] | > 50 µM
O=C(Nc1cccc(Cc2ccccc2)c1)[C@@H]1CNC[C@H]1c1ccccc1 (racemic) [Compound I-85, (±)-trans-N-(3-Benzylphenyl)-4-phenylpyrrolidine-3-carboxamide hydrochloride] | 1 to 10 µM
O=C(Nc1cccc(OC2CCOCC2)c1)[C@@H]1CNC[C@H]1c1ccccc1 (racemic) [Compound I-86, (±)-trans-N-[3-(Tetrahydro-2H-pyran-4-yloxy)phenyl]-4-phenylpyrrolidine-3-carboxamide hydrochloride] | 1 to 10 µM
O=C(Nc1ccc(C2CCCCC2)cc1)[C@@H]1CNC[C@H]1c1ccccc1 (racemic) [Compound I-87, (±)-trans-N-(4-Cyclohexylphenyl)-4-phenylpyrrolidine-3-carboxamide hydrochloride] | 1 to 10 µM
O=C(Nc1cccc(Nc2ccccc2)c1)[C@H]1CNC[C@@H]1c1ccccc1 (racemic) [Compound I-89, (±)-trans-4-Phenyl-N-[3-(phenylamino)phenyl]pyrrolidine-3-carboxamide hydrochloride] | < 1 µM
N#Cc1ccc(Oc2cccc(NC(=O)[C@H]3CNC[C@@H]3c3ccccc3)c2)cc1 (racemic) [Compound I-90, (±)-trans-N-[3-(4-Cyanophenoxy)phenyl]-4-phenylpyrrolidine-3-carboxamide hydrochloride] | < 1 µM
O=C(N[C@H]1C[C@H](Oc2ccc(F)cc2)C1)[C@H]1CNC[C@@H]1c1ccccc1 (racemic) [Compound I-91, (±)-trans-N-[trans-3-(4-Fluorophenoxy)cyclobutyl]-4-phenylpyrrolidine-3-carboxamide hydrochloride] | 1 to 10 µM
O=C(Nc1cccc(Oc2ccc(C(F)(F)F)cc2)c1)[C@H]1CNC[C@@H]1c1ccccc1 (racemic) [Compound I-92, (±)-trans-4-Phenyl-N-{3-[4-(trifluoromethyl)phenoxy]phenyl}pyrrolidine-3-carboxamide hydrochloride] | 1 to 10 µM
O=C(Nc1cccc(Oc2ccc(F)cc2)c1)[C@H]1CNC[C@@H]1c1ccccc1 (racemic) [Compound I-93, (±)-trans-N-[3-(4-Fluorophenoxy)phenyl]-4-phenylpyrrolidine-3-carboxamide hydrochloride] | < 1 µM
O=C(c1ccccc1)c1cccc(NC(=O)[C@H]2CNC[C@@H]2c2ccccc2)c1 (racemic) [Compound I-94, (±)-trans-4-Phenyl-N-[3-(phenylcarbonyl)phenyl]pyrrolidine-3-carboxamide hydrochloride] | 1 to 10 µM
Cc1cccc(Oc2cccc(NC(=O)[C@H]3CNC[C@@H]3c3ccccc3)c2)c1 (racemic) [Compound I-97, (±)-trans-4-Phenyl-N-[3-(3-methylphenoxy)phenyl]pyrrolidine-3-carboxamide hydrochloride] | 1 to 10 µM
O=C(Nc1cccc(Oc2ccncc2)c1)[C@H]1CNC[C@@H]1c1ccccc1 (racemic) [Compound I-98, (±)-trans-4-Phenyl-N-[3-(pyridin-4-yloxy)phenyl]pyrrolidine-3-carboxamide dihydrochloride] | > 50 µM
O=C(Nc1cccc(Oc2ccccn2)c1)[C@H]1CNC[C@@H]1c1ccccc1 (racemic) [Compound I-99, (±)-trans-4-Phenyl-N-[3-(pyridin-2-yloxy)phenyl]pyrrolidine-3-carboxamide dihydrochloride] | > 50 µM
O=C(c1cccc2cnccc12)[C@H]1CNC[C@@H]1c1ccccc1 (racemic) [Compound I-100, (±)-trans Isoquinolin-5-yl[(3S,4R)-4-phenylpyrrolidin-3-yl]methanone dihydrochloride] | 1 to 10 µM
